From patent publication US20210190775A1, “COMPOSITIONS AND METHODS FOR TAGGING AND DETECTING NUCLEIC ACIDS” (Nanoco Technologies Ltd., priority 2019, published 2021)

How the values were obtained:
[1] = tested on: DNA threads mounted on a glass slide; assay: Detection of DNA mounted on a glass slide by fluorescence microscopy; assay type: binding; settings: DNA 0.3 μg/mL, final dye concentration 0.4 mg/mL, 50× objective, DAPI filter cube
Procedure: The DNA binding and enhanced detection ability were also observed using trace amounts of DNA mounted on a glass slide. In this experiment, a DNA solution was prepared in DI water at 0.3 μg/mL and was mixed with the QD-fluorescent dye conjugate nanoparticles (Ex. 1) or with the Hoechst 33342 only (control experiment) at a final dye concentration of 0.4 mg/mL. A 3 μL solution of each composition was mounted on a slide, smeared and let to dry. The slide was then observed under a fluorescence microscope (Olympus BX51) using 50× objective and a DAPI filter cube (UMWU2) and equipped with an Osram HBO50W/AC L1 Short arc mercury lamp as an excitation source. […] All the images were taken using the same microscopy settings. FIG. 6 indicates an enhanced ability to detect DNA on a glass slide (zoomed in to show DNA strands covered with Hoechst-QDs).

[2] = tested on: A431 human squamous cell carcinoma; assay: Labelling of nuclear and cytoplasmic DNA or RNA in live cells; assay type: cell-based; settings: conjugate 50 μg/mL or Hoechst 33342 0.2 μg/mL, 15h

With `CCOc1ccc(-c2nc3cc(-c4nc5cc(N6CCN(C)CC6)ccc5[nH]4)ccc3[nH]2)cc1.Cl.Cl.Cl` [Hoechst 33342, 2′-(4-ethoxyphenyl)-5-(4-methyl-1-piperazinyl)-2,5′-bi-1H-benzimidazole trihydrochloride] the “detection of DNA threads on glass slide” value [1] was “almost no signal was observed” and the “labelling of cells (fluorescence microscopy)” value [2] was “the nuclei were stained but without the ability to detect cell-cell communication”.
